Laboratory results: ChEMBL document CHEMBL4004803, “Syntheses and antibacterial activity of soluble 9-bromo substituted indolizinoquinoline-5,12-dione derivatives” (Eur J Med Chem, 2017)

Key:
Type in all cases: functional
[1] = test system: Staphylococcus aureus; experiment: Antibacterial activity against methicillin-resistant Staphylococcus aureus 110910-2 clinical isolate after 20 to 24 hrs by two-fold microdilution method
[2] = test system: Staphylococcus aureus; experiment: Antibacterial activity against methicillin-resistant Staphylococcus aureus 110325 clinical isolate after 20 to 24 hrs by two-fold microdilution method
[3] = test system: Staphylococcus aureus; experiment: Antibacterial activity against methicillin-resistant Staphylococcus aureus 1212221 clinical isolate after 20 to 24 hrs by two-fold microdilution method
[4] = test system: Staphylococcus aureus; experiment: Antibacterial activity against methicillin-resistant Staphylococcus aureus 20339 clinical isolate after 20 to 24 hrs by two-fold microdilution method
[5] = test system: Staphylococcus aureus; experiment: Antibacterial activity against methicillin-resistant Staphylococcus aureus ATCC 43300 after 20 to 24 hrs by two-fold microdilution method
[6] = test system: Staphylococcus aureus; experiment: Antibacterial activity against methicillin-resistant Staphylococcus aureus 724244 clinical isolate after 20 to 24 hrs by two-fold microdilution method
[7] = test system: Staphylococcus aureus; experiment: Antibacterial activity against methicillin-resistant Staphylococcus aureus 112047 clinical isolate after 20 to 24 hrs by two-fold microdilution method
[8] = test system: Staphylococcus aureus; experiment: Antibacterial activity against methicillin-resistant Staphylococcus aureus 1025022 clinical isolate after 20 to 24 hrs by two-fold microdilution method
[9] = test system: Staphylococcus aureus; experiment: Antibacterial activity against methicillin-resistant Staphylococcus aureus 125025 clinical isolate after 20 to 24 hrs by two-fold microdilution method
[10] = test system: Staphylococcus aureus; experiment: Antibacterial activity against methicillin-resistant Staphylococcus aureus 130031 clinical isolate after 20 to 24 hrs by two-fold microdilution method
[11] = test system: Staphylococcus aureus; experiment: Antibacterial activity against methicillin-resistant Staphylococcus aureus 1024004-2 clinical isolate after 20 to 24 hrs by two-fold microdilution method
[12] = test system: Staphylococcus aureus; experiment: Antibacterial activity against methicillin-resistant Staphylococcus aureus 1211026 clinical isolate after 20 to 24 hrs by two-fold microdilution method
[13] = test system: Staphylococcus aureus; experiment: Antibacterial activity against methicillin-resistant Staphylococcus aureus 20106-2 clinical isolate after 20 to 24 hrs by two-fold microdilution method
[14] = test system: Enterococcus faecalis; experiment: Antibacterial activity against Enterococcus faecalis ATCC 29212 after 20 to 24 hrs by two-fold microdilution method
[15] = test system: Escherichia coli; experiment: Antibacterial activity against Escherichia coli ATCC 25922 after 20 to 24 hrs by two-fold microdilution method
[16] = test system: Staphylococcus aureus; experiment: Antibacterial activity against methicillin-resistant Staphylococcus aureus 10281-2 clinical isolate after 20 to 24 hrs by two-fold microdilution method
[17] = test system: Staphylococcus aureus; experiment: Antibacterial activity against methicillin-resistant Staphylococcus aureus 523005 clinical isolate after 20 to 24 hrs by two-fold microdilution method
[18] = test system: Staphylococcus aureus; experiment: Antibacterial activity against methicillin-resistant Staphylococcus aureus 112106 clinical isolate after 20 to 24 hrs by two-fold microdilution method
[19] = test system: Staphylococcus aureus; experiment: Antibacterial activity against methicillin-resistant Staphylococcus aureus 1101016 clinical isolate after 20 to 24 hrs by two-fold microdilution method
[20] = test system: Staphylococcus aureus; experiment: Antibacterial activity against methicillin-resistant Staphylococcus aureus 502025 clinical isolate after 20 to 24 hrs by two-fold microdilution method
[21] = test system: Staphylococcus aureus; experiment: Antibacterial activity against methicillin-resistant Staphylococcus aureus 305026 clinical isolate after 20 to 24 hrs by two-fold microdilution method
[22] = test system: Staphylococcus aureus; experiment: Antibacterial activity against methicillin-resistant Staphylococcus aureus 1212057-1 clinical isolate after 20 to 24 hrs by two-fold microdilution method
[23] = test system: Staphylococcus aureus; experiment: Antibacterial activity against methicillin-resistant Staphylococcus aureus 1108204 clinical isolate after 20 to 24 hrs by two-fold microdilution method
[24] = test system: Staphylococcus aureus; experiment: Antibacterial activity against methicillin-resistant Staphylococcus aureus 11819 clinical isolate after 20 to 24 hrs by two-fold microdilution method
[25] = test system: Staphylococcus epidermidis; experiment: Antibacterial activity against Staphylococcus epidermidis ATCC 12228 after 20 to 24 hrs by two-fold microdilution method
[26] = test system: Staphylococcus aureus; experiment: Antibacterial activity against methicillin-resistant Staphylococcus aureus 212014 clinical isolate after 20 to 24 hrs by two-fold microdilution method
[27] = test system: Staphylococcus haemolyticus; experiment: Antibacterial activity against Staphylococcus haemolyticus CICC 10373 after 20 to 24 hrs by two-fold microdilution method
[28] = test system: Staphylococcus aureus; experiment: Antibacterial activity against methicillin-resistant Staphylococcus aureus 1107027 clinical isolate after 20 to 24 hrs by two-fold microdilution method
[29] = test system: Streptococcus pneumoniae; experiment: Antibacterial activity against Streptococcus pneumoniae ATCC 6305 after 20 to 24 hrs by two-fold microdilution method
[30] = test system: Staphylococcus aureus; experiment: Antibacterial activity against methicillin-resistant Staphylococcus aureus 1103006 clinical isolate after 20 to 24 hrs by two-fold microdilution method
[31] = test system: Staphylococcus aureus; experiment: Antibacterial activity against methicillin-resistant Staphylococcus aureus 123152 clinical isolate after 20 to 24 hrs by two-fold microdilution method
[32] = test system: Staphylococcus aureus; experiment: Antibacterial activity against methicillin-resistant Staphylococcus aureus 519238 clinical isolate after 20 to 24 hrs by two-fold microdilution method
[33] = test system: Staphylococcus aureus; experiment: Antibacterial activity against methicillin-resistant Staphylococcus aureus 531026 clinical isolate after 20 to 24 hrs by two-fold microdilution method
[34] = test system: Staphylococcus aureus; experiment: Antibacterial activity against methicillin-resistant Staphylococcus aureus 19950 clinical isolate after 20 to 24 hrs by two-fold microdilution method
[35] = test system: Staphylococcus aureus; experiment: Antibacterial activity against methicillin-resistant Staphylococcus aureus 921026 clinical isolate after 20 to 24 hrs by two-fold microdilution method
[36] = test system: Staphylococcus aureus; experiment: Antibacterial activity against methicillin-resistant Staphylococcus aureus 1215028 clinical isolate after 20 to 24 hrs by two-fold microdilution method
[37] = test system: Staphylococcus aureus; experiment: Antibacterial activity against methicillin-resistant Staphylococcus aureus 121026 clinical isolate after 20 to 24 hrs by two-fold microdilution method
[38] = test system: Staphylococcus aureus; experiment: Antibacterial activity against methicillin-resistant Staphylococcus aureus 103054 clinical isolate after 20 to 24 hrs by two-fold microdilution method
[39] = test system: Staphylococcus aureus; experiment: Antibacterial activity against methicillin-resistant Staphylococcus aureus 1106003 clinical isolate after 20 to 24 hrs by two-fold microdilution method
[40] = test system: Staphylococcus aureus; experiment: Antibacterial activity against methicillin-resistant Staphylococcus aureus 503025 clinical isolate after 20 to 24 hrs by two-fold microdilution method
[41] = test system: Staphylococcus aureus; experiment: Antibacterial activity against methicillin-resistant Staphylococcus aureus 625032 clinical isolate after 20 to 24 hrs by two-fold microdilution method
[42] = test system: Staphylococcus aureus; experiment: Antibacterial activity against methicillin-resistant Staphylococcus aureus 118038 clinical isolate after 20 to 24 hrs by two-fold microdilution method
[43] = test system: Staphylococcus aureus; experiment: Antibacterial activity against methicillin-resistant Staphylococcus aureus 122820-2 clinical isolate after 20 to 24 hrs by two-fold microdilution method
[44] = test system: Staphylococcus aureus; experiment: Antibacterial activity against methicillin-resistant Staphylococcus aureus 912014 clinical isolate after 20 to 24 hrs by two-fold microdilution method
[45] = test system: Staphylococcus aureus; experiment: Antibacterial activity against methicillin-resistant Staphylococcus aureus 110432 clinical isolate after 20 to 24 hrs by two-fold microdilution method
[46] = test system: Staphylococcus aureus; experiment: Antibacterial activity against methicillin-resistant Staphylococcus aureus 219236 clinical isolate after 20 to 24 hrs by two-fold microdilution method
[47] = test system: Staphylococcus aureus; experiment: Antibacterial activity against methicillin-resistant Staphylococcus aureus 109244 clinical isolate after 20 to 24 hrs by two-fold microdilution method

Measured: MIC

CN1CCN(CCCCCCOC(=O)c2c3c(n4cc(Br)ccc24)C(=O)c2ncccc2C3=O)CC1
0.5 µg/mL: [4] | [23] | [29]
0.125 µg/mL: [1] | [8] | [12] | [41] | [45] | [47]
0.25 µg/mL: [7] | [10] | [11] | [13] | [14] | [17] | [18] | [19] | [20] | [21] | [26] | [28] | [31] | [32] | [34] | [40] | [42]
1 µg/mL: [33]
≤ 0.0078 µg/mL: [2] | [5] | [9] | [16] | [25] | [35]
0.063 µg/mL: [3] | [24] | [27] | [36] | [43] | [46]
4 µg/mL: [15]
0.031 µg/mL: [6] | [22] | [37] | [38] | [44]
> 16 µg/mL: [30] | [39]
